Molecular target: T1, human cathepsin K (Homo sapiens, UniProt P43235)
T1 construct: The proform of cathepsin K was converted to mature cathepsin K by brief exposure to pH 4; made in house; host or cells: baculovirus; Trichoplusia ni High Five cells (virus raised in Sf-9)
T1 sequence (P43235 115-329): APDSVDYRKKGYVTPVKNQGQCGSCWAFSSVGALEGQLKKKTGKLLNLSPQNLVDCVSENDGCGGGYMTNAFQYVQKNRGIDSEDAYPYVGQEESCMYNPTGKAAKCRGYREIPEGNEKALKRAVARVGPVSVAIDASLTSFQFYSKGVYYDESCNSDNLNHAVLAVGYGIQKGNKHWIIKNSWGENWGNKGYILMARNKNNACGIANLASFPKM
Test: Cathepsin K inhibition assay, fluorogenic substrate Cbz-Phe-Arg-AMC, progress curve method
Type: biochemical
Settings: Table 1; human recombinant enzyme, pH 5.5, 30° C., 10 μM substrate; read-out: hCat K Ki
Protocol: All assays for cathepsin K were carried out with human and rat recombinant enzyme. Assays for cathepsins S Et V were also carried out with human recombinant enzyme. Assays for human cathepsins B. H. and L were carried out with enzyme, purchased from Athens Research and Technology, Inc., prepared from human liver tissue. […] A stock substrate solution of Cbz-Phe-Arg-AMC was prepared at a concentration of 50 mM in dimethyl sulfoxide. This substrate was diluted into the assay for a final substrate concentration of 10 μM in the rat cathepsin K, human cathepsin K, and human cathepsin B assays; a final substrate concentration of 5 μM in the human cathepsin L assay; and a final substrate concentration of 2 μM in the human cathepsin V assay.
All assays contained 10% dimethyl sulfoxide. […] All assays were conducted at 30° C. Product fluorescence (excitation at 360 nm; emission at 440 nm, (except cathepsin H which used excitation at 340 nm; emission at 420 nm)) was monitored with a PerSeptive Biosystems Cytofluor II fluorescence plate reader. Product progress curves were generated over 2.3 h monitoring the formation of 7-amino-4-methylcoumarin product (or β-naphthalamide for cathepsin H).
Two liters of Spodoptera frugiperda (Sf-9) cells (ATCC) were grown in Grace's Supplemented medium (Life Technologies) supplemented with 2 g/L glucose, 10% a fetal bovine serum (HyClone) and 0.10% pluronic F-68 (Life Technologies). […] The cells continued to grow for 72 h post-infection, before the virus was harvested by centrifugation at 1400× g for 30 min.
One and one-half liters of Trichoplusia ni (T. ni) High Five (TM) cells [JRH Biosciences, Woodland, Calif. […] Media were separated from cells at a rate of 1 L/min using the Centritech 100 (TM) continuous-flow centrifuge (DuPont) operating at 200× g.
Protein Purification: Media (human and rat) were filtered through a Whatman 3 filter, and then loaded onto a 25 mL Poros HS II (26 mm×47 mm) cation exchange column equilibrated in 25 mM sodium acetate at pH 5.5 (equilibration buffer). The column was washed until the absorbance reached the baseline value, and then the protein was eluted with a linear gradient from 0-2 M sodium chloride in the equilibration buffer. Column fractions were analyzed by SDS-PAGE, N-terminal sequencing, and mass spectrometry. Fractions containing the proform of cathepsin K were pooled and frozen at −80° C. The proform was concentrated in an Amicon Centriprep 10 and fractionated with a Superdex 75 column (26 mm×600 mm, Pharmacia) equilibrated in 400 mM sodium chloride, 25 mM sodium acetate at pH 5.5.
Cathepsin K Activation: The proform of cathepsin K was converted to mature cathepsin K by brief exposure to pH 4 in the presence of 5 mM L-cysteine. Typically, 5 mM L-cysteine was added to 10 mL of approximately 1 mg/mL procathepsin K. One mL of this solution was diluted ten-fold into 450 mM sodium acetate at pH 4.0 containing 5 mM L-cysteine. This solution was reacted at 23° C. for 2 min before neutralization with 2 mL 1.8 M sodium acetate at pH 6.0. The neutralized sample was added to the remaining 9 mL of procathepsin K. The mixture was incubated at 4° C. for 2-3 days. The activated cathepsin K was chromatographed on a Poros HS II column as described above.
Potential inhibitors were evaluated using the progress curve method. Assays were carried out in the presence of variable concentrations of test compound. Reactions were initiated by addition of buffered solutions of inhibitor and substrate to enzyme. Data analysis was conducted according to one of two procedures depending on the appearance of the progress curves in the presence of inhibitors. […] Ki values were calculated from IC50 values using equation 2 assuming a competitive model. [formula]

| Structure (SMILES) | Ki |
| --- | --- |
| CCCC[C@H](NC(=O)O[C@@H](c1nnc(-c2ccncc2)o1)C(C)(C)C)C(=O)C(=O)Nc1ccn[nH]1 [Example 55, (1R)-2,2-dimethyl-1-[5-(4-pyridinyl)-1,3,4-oxadiazol-2-yl]propyl (1S)-1-[oxo(1H-pyrazol-5-ylamino)acetyl]pentylcarbamate] | 100 to 10000 nM |
| CCCC[C@H](NC(=O)O[C@H](COc1ccc(-n2ccnc2)cc1)C(C)(C)C)C(=O)C(=O)Nc1ccn[nH]1 [Example 49, (1S)-1-{[4-(1H-imidazol-1-yl)phenoxy]methyl}-2,2-dimethylpropyl(1S)-1-[oxo(1H-pyrazol-5-ylamino)acetyl]pentylcarbamate] | 0.01 to 1 nM |
| CCCC[C@H](NC(=O)O[C@H](c1nnc(-c2ccncc2)o1)C(C)(C)C)C(=O)C(=O)Nc1ccn[nH]1 [Example 54, (1S)-2,2-dimethyl-1-[5-(4-pyridinyl)-1,3,4-oxadiazol-2-yl]propyl(1S)-1-[oxo(1H-pyrazol-5-ylamino)acetyl]pentylcarbamate] | 0.01 to 1 nM |
| CCCC[C@H](NC(=O)O[C@@H](c1nc2c(OCC)ccc(OCC)c2n1C)C(C)(C)C)C(=O)C(=O)Nc1ccn[nH]1 [Example 43] | 100 to 10000 nM |
| CCCC[C@H](NC(=O)O[C@H](Cc1nnc(-c2ccc(C(F)(F)F)cc2)o1)C(C)(C)C)C(=O)C(=O)NN1CCOC1=O [Example 28, (1R)-2,2-dimethyl-1-({5-[4-(trifluoromethyl)phenyl]-1,3,4-oxadiazol-2-yl}methyl)propyl(1S)-1-{oxo[(2-oxo-1,3-oxazolidin-3-yl)amino]acetyl}pentyl carbamate] | 0.01 to 1 nM |
| CCCC[C@H](NC(=O)O[C@H](Cn1nccc1-c1ccc(C(F)(F)F)cc1)C(C)(C)C)C(=O)C(=O)Nc1ccn[nH]1 [Example 30, (1S)-2,2-dimethyl-1-({5-[4-(trifluoromethyl)phenyl]-1H-pyrazol-1-yl}methyl)propyl(1S)-1-[oxo(1H-pyrazol-5-ylamino)acetyl]pentylcarbamate] | 0.01 to 1 nM |
| CCCC[C@H](NC(=O)O[C@H](Cc1nnc(-c2ccccc2)o1)C(C)C)C(=O)C(=O)N[C@H](C)c1ccccc1 [Example 10, (1R)-2-methyl-1-[(5-phenyl-1,3,4-oxadiazol-2-yl)methyl]propyl(1S)-1-(oxo{[(1R)-1-phenylethyl]amino}acetyl)pentylcarbamate] | 0.01 to 1 nM |
| CCCC[C@H](NC(=O)O[C@H](Cc1nnc(-c2ccc(F)cc2)o1)C(C)(C)C)C(=O)C(=O)N[C@H](C)c1ccccc1 [Example 19, (1R)-1-{[5-(4-fluorophenyl)-1,3,4-oxadiazol-2-yl]methyl}-2,2-dimethylpropyl(1S)-1-(oxo{[(1R)-1-phenylethyl]amino}acetyl)pentylcarbamate] | 0.01 to 1 nM |
| CCCC[C@H](NC(=O)O[C@H](Cn1ccc(-c2ccc(C(F)(F)F)cc2)n1)C(C)(C)C)C(=O)C(=O)Nc1ccccn1 [Example 5, (1S)-2,2-dimethyl-1-({3-[4-(trifluoromethyl)phenyl]-1H-pyrazol-1-yl}methyl)propyl(1S)-1-[oxo(2-pyridinylamino)acetyl]pentylcarbamate] | 1 to 100 nM |
| CCCC[C@H](NC(=O)O[C@H](COc1ccc(OCc2ccccc2)cc1)C(C)(C)C)C(=O)C(=O)Nc1ccn[nH]1 [Example 47, (1S)-1-{[4-(benzyloxy)phenoxy]methyl}-2,2-dimethylpropyl(1S)-1-[oxo(1H-pyrazol-5-ylamino)acetyl]pentylcarbamate] | 0.01 to 1 nM |
| CCCC[C@H](NC(=O)O[C@H](Cn1cc(-c2ccc(C(F)(F)F)cc2)cn1)C(C)(C)C)C(=O)C(=O)Nc1ccn[nH]1 [Example 14, (1S)-2,2-dimethyl-1-({4-[4-(trifluoromethyl)phenyl]-1H-pyrazol-1-yl}methyl)propyl(1S)-1-[oxo(1H-pyrazol-5-ylamino)acetyl]pentylcarbamate] | 0.01 to 1 nM |
| CCCC[C@H](NC(=O)O[C@H](Cn1cnc(-c2ccccc2)c1)C(C)(C)C)C(=O)C(=O)N[C@H](C)c1ccccc1 [Example 12, (1S)-2,2-dimethyl-1-[(4-phenyl-1H-imidazol-1-yl)methyl]propyl(1S)-1-(oxo{[(1R)-1-phenylethyl]amino}acetyl)pentylcarbamate] | 0.01 to 1 nM |
| CCCC[C@H](NC(=O)O[C@H](Cn1ccc(-c2cccnc2)n1)C(C)(C)C)C(=O)C(=O)Nc1ccn[nH]1 [Example 44, (1S)-2,2-dimethyl-1-{[3-(3-pyridinyl)-1H-pyrazol-1-yl]methyl}propyl (1S)-1-[oxo(1H-pyrazol-5-ylamino)acetyl]pentylcarbamate] | 0.01 to 1 nM |
| CCCC[C@H](NC(=O)O[C@@H](Cn1cnc(-c2ccccc2)c1)C(C)(C)C)C(=O)C(=O)N[C@H](C)c1ccccc1 [Example 13, (1R)-2,2-dimethyl-1-[(4-phenyl-1H-imidazol-1-yl)methyl]propyl(1S)-1-(oxo{[(1R)-1-phenylethyl]amino}acetyl)pentylcarbamate] | 100 to 10000 nM |
| CCCC[C@H](NC(=O)O[C@@H](Cc1nnc(-c2ccc(C(F)(F)F)cc2)o1)C(C)(C)C)C(=O)C(=O)N[C@H](C)c1ccccc1 [Example 18, (1S)-2,2-dimethyl-1-({5-[4-(trifluoromethyl)phenyl]-1,3,4-oxadiazol-2-yl}methyl)propyl(1S)-1-(oxo{[(1R)-1-phenylethyl]amino}acetyl)pentylcarbamate] | 100 to 10000 nM |
| CCCC[C@H](NC(=O)O[C@@H](Cc1nnc(-c2ccc(F)cc2)o1)C(C)(C)C)C(=O)C(=O)N[C@H](C)c1ccccc1 [Example 20, (1S)-1-{[5-(4-fluorophenyl)-1,3,4-oxadiazol-2-yl]methyl}-2,2-dimethylpropyl(1S)-1-(oxo{[(1R)-1-phenylethyl]amino}acetyl)pentylcarbamate] | 100 to 10000 nM |
| CCCC[C@H](NC(=O)O[C@H](Cc1nnc(-c2ccc(C(F)(F)F)cc2)o1)C(C)(C)C)C(=O)C(=O)Nc1ccn[nH]1 [Example 3] | 0.01 to 1 nM |
| CCCC[C@H](NC(=O)O[C@H](Cn1cnc2ccccc21)C(C)(C)C)C(=O)C(=O)Nc1ccn[nH]1 [Example 27, (1S)-1-(1H-benzimidazol-1-ylmethyl)-2,2-dimethylpropyl(1S)-1-[oxo(1H-pyrazol-5-ylamino)acetyl]pentylcarbamate] | 0.01 to 1 nM |
| CCCC[C@H](NC(=O)O[C@@H](c1cccc(-c2ccccc2)c1)C(C)(C)C)C(=O)C(=O)Nc1ccn[nH]1 [Example 41, (1R)-1-[1,1′-biphenyl]-3-yl-2,2-dimethylpropyl(1S)-1-[oxo(1H-pyrazol-5-ylamino)acetyl]pentylcarbamate] | 100 to 10000 nM |
| CCCC[C@H](NC(=O)O[C@H](Cn1cnc(Cc2ccccc2)c1)C(C)(C)C)C(=O)C(=O)Nc1ccn[nH]1 [Example 34, (1S)-1-[(4-benzyl-1H-imidazol-1-yl)methyl]-2,2-dimethylpropyl(1S)-1-[oxo(1H-pyrazol-5-ylamino)acetyl]pentylcarbamate] | 0.01 to 1 nM |
| CCCC[C@H](NC(=O)O[C@H](Cn1ccc(-c2ccncc2)n1)C(C)(C)C)C(=O)C(=O)Nc1ccn[nH]1 [Example 45, (1S)-2,2-dimethyl-1-{[3-(4-pyridinyl)-1H-pyrazol-1-yl]methyl}propyl(1S)-1-[oxo(1H-pyrazol-5-ylamino)acetyl]pentylcarbamate] | 0.01 to 1 nM |
| CCCC[C@H](NC(=O)O[C@H](Cc1nnc(-c2ccc(F)cc2)o1)C(C)(C)C)C(=O)C(=O)N[C@H]1CCCNC1=O [Example 25] | 0.01 to 1 nM |
